In the data set the target is DGAT2. Particulars: ASO.

This note sets out measurements from the OligoGym collection.

“And” between values parts separate entries of the source, which are not always exact repeats. Identical values can stand only once. After the bases stand the sugars from the 5' end (letter, count) and the backbone: PS all phosphorothioate, else s phosphorothioate and o phosphodiester by linkage. Methylation of C is not given here. e = 2'-O-(2-methoxyethyl) (MOE); d = 2'-deoxy (DNA)

For “AAATAACCCACAGACACCCA (sugars e5 d10 e5, PS)”, the target mRNA inhibition was 10% (HepG2, 0.12 µM); 52% and 50% and 46% (HepG2, 2.5 µM); 96% and 85% (HepG2, 10 µM); 97% (HepG2, 20 µM).
Sequence “AACCACAGCGATAATCACAC (sugars e5 d10 e5, PS)” yielded a target mRNA inhibition (HepG2, 2.5 µM) of 66% and a target mRNA inhibition (HepG2, 10 µM) of 91%.
The sequence “AAGATATAGTTCCTGGTGGT (sugars e5 d10 e5, PS)” gave a target mRNA inhibition (HepG2, 0.12 µM) of 41%.
On to “AAGGAAAACTTAGGCATGCT (sugars e5 d10 e5, PS)”, for which the target mRNA inhibition by setting is: (HepG2, 2.5 µM) 63%; (HepG2, 10 µM) 80%.
As to “AAGGAGTTTGTGTTTCCCAT (sugars e5 d10 e5, PS)”, the target mRNA inhibition runs as follows: (HepG2, 2.5 µM) 71% and 65%; (HepG2, 10 µM) 91% and 85%.
Sequence “AAGGCCGTATGCCTGGGAAC (sugars e5 d10 e5, PS)” yielded a target mRNA inhibition (HepG2, 0.12 µM) of 25%.
The same measure, in the same setting: next, “AATAGTCTATGGTGTCCCGG (sugars e5 d10 e5, PS)”: 63%.
“AATCCAACCCTTGTCACTCT (sugars e5 d10 e5, PS)”: the target mRNA inhibition reads like this: (HepG2, 2.5 µM) 33%; (HepG2, 10 µM) 94%.
On to “AATCTGTGTGACCTTGGGCA (sugars e5 d10 e5, PS)”, for which the target mRNA inhibition is 87% and 82% (HepG2, 2.5 µM); 84% and 93% (HepG2, 10 µM).
As for “AATGGAGTGACAGGGCAGGA (sugars e5 d10 e5, PS)”, the target mRNA inhibition came out at 54% (HepG2, 2.5 µM) and 81% (HepG2, 10 µM).
Turning to “AATGGGAATGGTATCGCACT (sugars e5 d10 e5, PS)”, the target mRNA inhibition reads like this: (HepG2, 2.5 µM) 58%; (HepG2, 10 µM) 89%.
For “ACAAAGTCTATCAGGATGCA (sugars e5 d10 e5, PS)”, in that order: 53% and 91%.
For “ACAACTCTCTTGTTGGGAGG (sugars e5 d10 e5, PS)” the same measures were 64% and 84%.
Consider “ACAATTCCTGGATAACAAGG (sugars e5 d10 e5, PS)”, for which the target mRNA inhibition (HepG2, 0.12 µM) amounted to 41%.
“ACAGAAAAGTGAGGCTTGGG (sugars e5 d10 e5, PS)” came in with a target mRNA inhibition (HepG2, 0.12 µM) of 40%.
For the setting “HepG2, 0.12 µM”, “ACAGGAAGCCTGGTGACTGC (sugars e5 d10 e5, PS)” yielded a target mRNA inhibition of 54%.
Still for that read-out and setting: then “ACAGGGCAGATACCTCCAGA (sugars e5 d10 e5, PS)”, with 58%.
Regarding “ACCACAGCGATAATCAC (sugars e3 d10 e4, PS)”, the target mRNA inhibition came to 50% (HepG2, 2.5 µM) and 75% (HepG2, 10 µM).
Consider “ACCAGCCAGGCCCAGACCCA (sugars e5 d10 e5, PS)”, for which the target mRNA inhibition by setting is: (HepG2, 2.5 µM) 21%; (HepG2, 10 µM) 43%.
With “ACCAGCTGCAAGGATGACCT (sugars e5 d10 e5, PS)”, under “HepG2, 0.12 µM”, the target mRNA inhibition was 49%.
Sequence “ACCCACTGGAGCACTGAGAT (sugars e2 d13 e5, PS)” returned a target mRNA inhibition (HepG2, 0.12 µM) of 52%.
Still for that read-out and setting: then “ACCCAGAGATGGTGATAAGG (sugars e5 d10 e5, PS)”, with 53%; and “ACCCATCGGCCCCAGGAGCC (sugars e5 d10 e5, PS)”, with 59%.
With “ACCTGGGTTTTTGTGTATTC (sugars e5 d10 e5, PS)”, the target mRNA inhibition (HepG2, 2.5 µM) was 86% and 87%; the target mRNA inhibition (HepG2, 10 µM) is 86% and 90%.
Consider “ACTTCATTCTCTCCAAAGGA (sugars e5 d10 e5, PS)”, for which the target mRNA inhibition (HepG2, 0.12 µM) came out at 45%.
On the same count and under the same terms, next, “AGAAAAACCAGTTACTCCAC (sugars e5 d10 e5, PS)”: 4%; “AGAAGGCACCCAGGCCCATG (sugars e5 d10 e5, PS)”: 38%.
With “AGAGCACAGCGATGAGCCAG (sugars e5 d10 e5, PS)”, the target mRNA inhibition is 52% (HepG2, 2.5 µM) and 85% (HepG2, 10 µM).
As to “AGAGCCAGCACACAGCTATG (sugars e5 d10 e5, PS)”, under “HepG2, 0.12 µM”, the target mRNA inhibition amounted to 20%.
The sequence “AGAGCTTCACCAGGGCCTCC (sugars e5 d10 e5, PS)” had a target mRNA inhibition (HepG2, 0.12 µM) of 46%.
Same read-out and setting: then “AGATGCCACTTCATCAAGGC (sugars e5 d10 e5, PS)”, with 24%.
Take “AGCAGGTTGTGTGTCTTCAC (sugars e5 d10 e5, PS)”: the target mRNA inhibition was 55% and 77% (HepG2, 0.12 µM); 0% (HepG2, 2.5 µM).
For the sequence “AGCAGTCTGCCTGATTCCCT (sugars e5 d10 e5, PS)”, the target mRNA inhibition runs as follows: (HepG2, 2.5 µM) 69% and 44%; (HepG2, 10 µM) 87% and 82%.
“AGCCAGGTAAGGCCGTATGC (sugars e2 d13 e5, PS)”: where the note is “HepG2, 0.12 µM”, the target mRNA inhibition worked out at 67%.
The same measure, in the same setting: next, “AGCCTGGACAAGTCCTGCCC (sugars e2 d13 e5, PS)”: 75%.
For the sequence “AGCCTGGACAAGTCCTGCCC (sugars e5 d10 e5, PS)”, the target mRNA inhibition (HepG2, 0.12 µM) turned out to be 79%; the target mRNA inhibition (HepG2, 20 µM) was 79% and 92% and 91%.
On to “AGGAAAACTTAGGCATGCTT (sugars e5 d10 e5, PS)”, for which the target mRNA inhibition is, setting by setting: (HepG2, 2.5 µM) 58%; (HepG2, 10 µM) 84%.
In turn, “AGGAAGGACAGGACCCACTG (sugars e5 d10 e5, PS)” returned a target mRNA inhibition (HepG2, 0.12 µM) of 38%.
